According to paper PMC4673272, “Oral nano-delivery of anticancer ginsenoside 25-OCH3-PPD, a natural inhibitor of the MDM2 oncogene: Nanoparticle preparation, characterization, in vitro and in vivo anti-prostate cancer activity, and mechanisms of action” (Oncotarget, 2015):

What was measured:
PC3 (p53 null) cells = assay: Cell viability, MTT assay, PC3; format: cell-based, Human; details: GS25 equivalent
Experimental: (§1) Assays for cell viability and apoptosis were performed as described previously. In brief, 3–4 × 10^4 cells were seeded in a 96-well plate and treated with various concentrations of GS25 or GS25NP for 24, 48, or 72 h for the MTT assay. To detect apoptosis, 2–3 × 10^5 cells were seeded in 6-well plates and were treated with GS25 or GS25NP for 48 h. Cells positive for Annexin V-FITC and PI were counted on a BD FACSVerse instrument (BD Biosciences, CA, USA).

[1] = Pharmacokinetics and biodistribution in CD-1 mice; format: in vivo
Experimental: Pharmacokinetic studies were carried out in normal CD-1 mice and nude mice bearing PC3 xenograft tumors as described previously. Briefly, male CD-1 mice were divided randomly into four groups with three mice per time point. One group received 20 mg/kg of GS25 in PEG400:EtOH:saline by intravenous injection into the tail vein. One group of mice received GS25 in PEG400:EtOH:saline (57.1:14.3:28.6, v/v/v) at a dose of 100 mg/kg by oral administration. Two groups received GS25NP at a dose of 20 mg/kg and 100 mg/kg by oral administration. Nude mice bearing PC3 xenografts were divided into two groups and given GS25 and GS25NP at a dose of 100 mg/kg by oral administration. For orally-dosed mice, the plasma and various tissues (tumor, liver, lungs, kidneys, spleen, heart, brain, pancreas, fat, stomach, stomach contents, small intestine, small intestine contents, large intestine, and large intestine contents) were collected at 0, 15, 30, and 60 min, and 2, 4, 8, 24, 48, and 72 h after treatment. For mice that received an i.v. injection, various tissues were collected at 0, 5, 10, 30, and 60 min, and 2, 4, 8, 24, 48, and 72 h after treament. The plasma and tissue samples were stored at −80°C until they were analyzed by LC-MS/MS.

[2] = Maximum tolerated dose (MTD) study; format: in vivo; details: CD-1 mice, oral
Experimental: To assess the possible host toxicity of GS25 and GS25NP and establish initial doses for in vivo treatment, a multi-dose MTD study was initially performed for both GS25 and GS25NP at a dose of 200 mg/kg for 7 days. […] The toxicity studies were continued with dose of 400 mg/kg/d for 7 days using a similar protocol. At the end of the study, all mice were euthanized, and various tissues (liver, lungs, kidneys, spleen, heart, and brain) were collected for a pathological analysis.

PC3 cells = assay: Apoptosis, Annexin V-FITC, PC3; format: cell-based, Human; details: PC3, 12.3 μg/mL, 48 h
Experimental: as §1

LNCaP cells = assay: Apoptosis, Annexin V-FITC, LNCaP; format: cell-based, Human; details: 12.3 μg/mL, 48 h
Experimental: as §1

PC3 xenograft tumors = assay: In vivo efficacy and host toxicity in PC3 prostate cancer xenograft model; parameters: species or system nude mice
Experimental: The animal study protocol was approved by the Institutional Animal Use and Care Committee of the Texas Tech University Health Sciences Center. Male athymic pathogen-free nude mice (nu/nu, 4–6 weeks) were purchased from Charles River Laboratories (Wilmington, MA). The PC3 human prostate cancer xenografts were established as reported previously. Briefly, a total of 5 × 10^6 PC3 cells (in 0.1 mL) were subcutaneously injected into the left inguinal area of the mice. All animals were monitored for activity, physical condition, body weight, and tumor growth. When the tumor volume reached ~ 100 mm^3, the mice bearing PC3 xenografts were randomly divided into treatment and control groups (10 mice/each group). GS25NP was dissolved in water and administered by oral gavage at a dose of 20 mg/kg/d or 100 mg/kg/d, 5 day/week for 4 weeks, while GS25 in PEG400:EtOH:saline (57.1:14.3:28.6, v/v/v) was administered at a dose of 100 mg/kg/d for 4 weeks. The control groups received vehicle only or void NPs. At the end of the experiment, xenograft tumors and various organs (liver, lungs, kidneys, spleen, heart, and brain) were excised and snap frozen for Western blotting, immunohistochemical studies, TUNEL assays, and hematoxylin and eosin staining.
All of the staining assays were performed as described previously. Briefly, tissues were fixed and embedded in paraffin, cut into 5 μm sections, and then affixed onto glass slides. For the immunohistochemical studies, the tumor sections were blocked and incubated with a biotinylated anti-human MDM2 antibody (diluted 1:50 in 5% BSA in PBS) for 1–2 h at room temperature. Sections were then incubated with pre-diluted streptavidin-peroxidase HRP conjugates and stained with DAB chromogen according to the manufacturer's instructions. Finally, sections were lightly counterstained with hematoxylin. […] Tissue sections were analyzed under a phase-contrast Olympus microscope (Olympus America Inc).

DU145 (p53 mutant) cells = assay: Cell viability, MTT assay, DU145; format: cell-based, Human; details: GS25 equivalent
Experimental: as §1

DU145 cells = assay: Apoptosis, Annexin V-FITC, DU145; format: cell-based, Human; details: DU145, 12.3 μg/mL, 48 h
Experimental: as §1

Caco-2 cell monolayers = assay: Caco-2 cell monolayer permeability assay; format: in vitro ADME, Human; details: apical to basolateral, 37°C, pH 6.0
Experimental: The Caco-2 cell monolayer permeability assay was performed as reported previously. In brief, Caco-2 cells were seeded onto polycarbonate 6-well Transwell® inserts (mean pore size 3.0 μm, Corning Costar Inc., NY, USA) at a density of 4 × 10^5 cells/well, then the confluent monolayers (10–12 days) were used for permeability studies. The transepithelial electrical resistance (TEER) of the monolayer was measured using an epithelial voltohmmeter (EVOM, WPI Inc., USA) to determine the formation of the monolayer and its integrity during the experiment. The studies were carried out in HBSS containing 30 mM HEPES at pH 6.0. Monolayers were washed with HBSS prior to the experiment, after which 0.5 and 1.2 mL of HBSS was placed into the upper and lower compartments, respectively. A total volume of 100 μL of solution (1 or 5 μg/mL) was taken from the lower compartment at regular intervals over 120 min and replaced with the same volume of fresh buffer, followed by a LC-MS/MS analysis. Apparent permeability coefficients (Papp) were calculated using the equation: (∂Q/∂t)/(A*C0), where “∂Q/∂t” is the permeability rate of the drug across the cells, “A” is the diffusion area of the monolayer and “C0” is the initial concentration of GS25 in the upper compartment.

[3] = tested on: LNCaP (p53 wild-type) cells; assay: Cell viability, MTT assay, LNCaP; format: cell-based, Human; details: GS25 equivalent
Experimental: as §1

MDM2 = assay: Western blotting of MDM2 and apoptosis-related proteins in prostate cancer cells; format: cell-based, Human; details: 2.5 μg/mL, 24 h, LNCaP, DU145, PC3 cells
Experimental: In the in vitro studies, prostate cancer cells with or without GS25 or GS25NP treatment were lysed in NP40 lysis buffer containing a protease inhibitor mixture (Sigma, St. Louis, MO, USA). In the in vivo studies, tumor tissues were removed and homogenized in NP40 lysis buffer (100 mg tumor tissue/1 mL NP40 buffer), and the supernatants of the homogenates was collected. Then, the cell lysates and tumor homogenates were subjected to Western blotting analyses for the expression levels of MDM2 and other related proteins using the methods described in our previous studies.

[4] = nude mice bearing PC3 xenografts, 4-week oral treatment (GS25 100 mg/kg; GS25NP 20 and 100 mg/kg)

COC(C)(C)CCC[C@](C)(O)[C@H]1CC[C@]2(C)[C@@H]1[C@H](O)C[C@@H]1[C@@]3(C)CC[C@H](O)C(C)(C)[C@@H]3CC[C@]12C [GS25, 20(s)-25-methoxyl-dammarane-3beta, 12beta, 20-triol]
IC50 PC-3 (PC3 (p53 null) cells; treatment time 24 h): 10.9 µg/mL | IC50 PC-3 (PC3 (p53 null) cells; treatment time 48 h): 6.7 µg/mL | IC50 PC-3 (PC3 (p53 null) cells; treatment time 72 h): 3.8 µg/mL | Oral bioavailability ([1]; 100 mg/kg oral vs 20 mg/kg i.v.): ~ 14.9% | AUC0-t ([1]; plasma, 100 mg/kg, p.o.): 3500 ng·h/mL | Cmax ([1]; plasma, 100 mg/kg, p.o.): 900 ng/mL | T1/2 ([1]; plasma, 100 mg/kg, p.o.): 2.1 h | Body weight change in MTD study ([2]; 200 or 400 mg/kg/d for 7 days): No significant decrease in mouse body weight | Histological examination of liver, lungs, kidneys, spleen, heart, brain vs vehicle ([2]; 200 or 400 mg/kg/d for 7 days): no significant differences among the groups | Toxicity in MTD study ([2]; up to 400 mg/kg/d for 7 days): no toxicity | Apoptotic cells (PC3 cells): 22.9% | Apoptotic cells (LNCaP cells): 28.5% | Inhibition of PC3 xenograft tumor growth (PC3 xenograft tumors; 100 mg/kg oral, 5 days/week for 4 weeks): approximately 41% | Change in average body weight (PC3 xenograft tumors; [4]): no significant changes in the average body weights | Histological findings in liver, lungs, kidneys, spleen, heart, brain vs control (PC3 xenograft tumors; [4]): no significant differences in the histological findings | IC50 DU145 (DU145 (p53 mutant) cells; treatment time 24 h): 13.1 µg/mL | IC50 DU145 (DU145 (p53 mutant) cells; treatment time 48 h): 8.0 µg/mL | IC50 DU145 (DU145 (p53 mutant) cells; treatment time 72 h): 5.4 µg/mL | Apoptotic cells (DU145 cells): 18.2% | Apparent permeability coefficient (Papp) (Caco-2 cell monolayers): 38 ×10⁻⁶ cm/s | IC50 LNCaP ([3]; treatment time 24 h): 18.3 µg/mL | IC50 LNCaP ([3]; treatment time 48 h): 11.6 µg/mL | IC50 LNCaP ([3]; treatment time 72 h): 8.0 µg/mL | Effect on MDM2 and apoptosis-associated protein levels (p53, Bax, cleaved-PARP) (MDM2): did not produce significant effects
